Measured values reported in patent US6720346B2, “Thiazole benzamide derivatives and pharmaceutical compositions for inhibiting cell proliferation” (Agouron Pharmaceuticals, Inc., priority 2001, dated 2004).

Experiments:
HCT-116 cell line = assay: Inhibition of cell growth, MTT tetrazolium salt assay; type: cell-based; settings: for HCT-116 % Inhibition at 0.1 μM: HCT-116, at 0.1 μM; for HCT-116 % Inhibition at 0.25 μM: HCT-116, at 0.25 μM
Outline: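 Cells in McCoy's 5A medium were given 4 h before compound addition in 0.5% (v/v) DMSO, then incubated 3–5 days at 37 °C, 5% CO2. After 4 h with 0.2 mg/mL MTT, DMSO-solubilized formazan was read at 540 nm; 50% and 90% growth-inhibitory concentrations came from semi-log plots against vehicle controls.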

CDK2/cyclin A = target: T1, CDK2/cyclin A (Homo sapiens, UniProt P24941); assay: Inhibition of CDK2/cyclin A retinoblastoma kinase activity (Ki; % inhibition); type: biochemical; settings: at 0.03 μM
T1 construct: made in house; host or cells: CDK2: insect cells (baculovirus); cyclin A: E. coli
Outline: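 Apparent Ki values came from fitting concentration-dependent activity data to competitive (or competitive tight-binding) models, and % inhibition from single 30 nM screens of library compounds. Activity was measured as ³²P/³³P incorporation from 25 μM ATP into an Rb substrate by 10 or 19 nM CDK2/delta cyclin A at 30 °C over 60–75 min, pH 7.4.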

human CDK4/cyclin D3 = target: T2, human CDK4/cyclin D3 (Homo sapiens, UniProt P11802); assay: Inhibition of CDK4/cyclin D retinoblastoma kinase activity (Ki; % inhibition); type: biochemical; settings: at 0.03 μM
T2 construct: made in house; host or cells: insect cells co-infected with baculovirus vectors
Outline: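 Radiometric filter-binding read-out: Rb residues 386-928 phosphorylated by 5 nM CDK4/cyclin D3(1-264) from baculovirus-infected insect cells, 25 μM ATP, HEPES pH 7.4, 30 °C. Run 20 min, or 60 min for tight-binding inhibitors. Screening at 30 nM theoretical compound; apparent Ki by competitive-inhibition fitting.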

T2 sequence (P11802 whole entry): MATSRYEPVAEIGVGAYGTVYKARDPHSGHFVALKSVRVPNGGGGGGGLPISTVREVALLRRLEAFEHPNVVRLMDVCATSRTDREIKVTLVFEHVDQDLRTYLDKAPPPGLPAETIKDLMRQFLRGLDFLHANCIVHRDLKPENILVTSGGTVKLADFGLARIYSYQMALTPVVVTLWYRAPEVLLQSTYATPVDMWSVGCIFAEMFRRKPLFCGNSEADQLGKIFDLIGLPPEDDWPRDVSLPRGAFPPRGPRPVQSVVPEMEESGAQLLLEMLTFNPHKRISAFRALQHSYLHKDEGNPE
T2 sequence (P30281 1-264 partner limits assumed): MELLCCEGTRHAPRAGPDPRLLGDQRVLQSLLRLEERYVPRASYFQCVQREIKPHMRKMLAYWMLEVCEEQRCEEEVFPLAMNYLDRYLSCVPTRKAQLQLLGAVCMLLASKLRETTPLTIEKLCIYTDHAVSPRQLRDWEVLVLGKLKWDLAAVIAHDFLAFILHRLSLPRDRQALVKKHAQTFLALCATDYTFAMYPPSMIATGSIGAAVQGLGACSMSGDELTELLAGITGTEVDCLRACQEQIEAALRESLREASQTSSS

Compound | HCT-116 % Inhibition at 0.1 μM (HCT-116 cell line) [%] | HCT-116 % Inhibition at 0.25 μM (HCT-116 cell line) [%] | CDK2 % Inhibition at 0.03 μM (CDK2/cyclin A) [%] | CDK4 % Inhibition at 0.03 μM (human CDK4/cyclin D3) [%] | HCT-116 % Inhibition at 0.1 μM (HCT-116 cell line; 0.1 µM) [%] | HCT-116 % Inhibition at 0.25 μM (HCT-116 cell line; 0.25 µM) [%]
Nc1nc(Nc2ccc(C(=O)NC3CCc4ccccc43)cc2)sc1C(=O)c1c(F)cccc1F (centres unmarked) [Example G95] | 32 | 63 | 12 | 18 | – | –
CC(C)NC(=O)c1ccc(Nc2nc(N)c(C(=O)c3c(F)cccc3F)s2)cc1 [Example G96] | 20 | 56 | −10 | 5 | – | –
COC(CNC(=O)c1ccc(Nc2nc(N)c(C(=O)c3c(F)cccc3F)s2)cc1)OC [Example G97] | 28 | 56 | 2 | 11 | – | –
COCCCNC(=O)c1ccc(Nc2nc(N)c(C(=O)c3c(F)cccc3F)s2)cc1 [Example G98] | 22 | 60 | −24 | 11 | – | –
CN(C)CCCCCCNC(=O)c1ccc(Nc2nc(N)c(C(=O)c3c(F)cccc3F)s2)cc1 [Example G99] | 24 | 62 | −16 | 23 | – | –
Nc1nc(Nc2ccc(C(=O)Nc3ccc4nc[nH]c4c3)cc2)sc1C(=O)c1c(F)cccc1F [Example G100] | 27 | 89 | 13 | 22 | – | –
Nc1nc(Nc2ccc(C(=O)Nc3ccc4c(c3)S(=O)(=O)NC4=O)cc2)sc1C(=O)c1c(F)cccc1F [Example G101] | 10 | 46 | 11 | 19 | – | –
CC(C)C(CO)NC(=O)c1ccc(Nc2nc(N)c(C(=O)c3c(F)cccc3F)s2)cc1 (centres unmarked) [Example G102] | 18 | 55 | −3 | 18 | – | –
COCC(C)NC(=O)c1ccc(Nc2nc(N)c(C(=O)c3c(F)cccc3F)s2)cc1 (centres unmarked) [Example G103] | 21 | 59 | −2 | 5 | – | –
Nc1nc(Nc2ccc(C(=O)NCC(O)c3ccccc3)cc2)sc1C(=O)c1c(F)cccc1F (centres unmarked) [Example G104] | 38 | 91 | 8 | 14 | – | –
Nc1ccc(CCNC(=O)c2ccc(Nc3nc(N)c(C(=O)c4c(F)cccc4F)s3)cc2)cc1 [Example G105] | 24 | 67 | 3 | 9 | – | –
COC(=O)c1cccc(NC(=O)c2ccc(Nc3nc(N)c(C(=O)c4c(F)cccc4F)s3)cc2)c1 [Example G106] | 0 | 61 | 7 | 7 | – | –
Cc1cc(NC(=O)c2ccc(Nc3nc(N)c(C(=O)c4c(F)cccc4F)s3)cc2)ccc1C(C)C [Example G107] | 5 | 59 | −5 | 12 | – | –
CSCCC(O)NC(=O)c1ccc(Nc2nc(N)c(C(=O)c3c(F)cccc3F)s2)cc1 (centres unmarked) [Example G108] | 0 | 60 | −5 | 12 | – | –
CC(CO)NC(=O)c1ccc(Nc2nc(N)c(C(=O)c3c(F)cccc3F)s2)cc1 (centres unmarked) [Example G109] | – | – | 6 | 22 | 0 | 54
CC(O)CNC(=O)c1ccc(Nc2nc(N)c(C(=O)c3c(F)cccc3F)s2)cc1 (centres unmarked) [Example G110] | 0 | 52 | 15 | 17 | – | –
Cc1ccc(CCNC(=O)c2ccc(Nc3nc(N)c(C(=O)c4c(F)cccc4F)s3)cc2)cc1 [Example G111] | 0 | 52 | 15 | 20 | – | –
CC1CC(NC(=O)c2ccc(Nc3nc(N)c(C(=O)c4c(F)cccc4F)s3)cc2)CC(C)(C)C1 (centres unmarked) [Example G112] | 6 | 57 | −11 | 13 | – | –
Nc1nc(Nc2ccc(C(=O)NCCOc3ccccc3)cc2)sc1C(=O)c1c(F)cccc1F [Example G113] | 26 | 80 | 51 | 43 | – | –
CCOC(=O)/C=C/c1ccc(NC(=O)c2ccc(Nc3nc(N)c(C(=O)c4c(F)cccc4F)s3)cc2)cc1 [Example G114] | 0 | 48 | −3 | 11 | – | –
Nc1nc(Nc2ccc(C(=O)Nc3ccc4c(c3)S(=O)(=O)C=C4)cc2)sc1C(=O)c1c(F)cccc1F [Example G115] | 30 | 88 | 27 | 24 | – | –
Nc1nc(Nc2ccc(C(=O)NCC3CCCO3)cc2)sc1C(=O)c1c(F)cccc1F (centres unmarked) [Example G116] | 0 | 46 | 7 | 24 | – | –
CCOC(=O)CC(C)NC(=O)c1ccc(Nc2nc(N)c(C(=O)c3c(F)cccc3F)s2)cc1 (centres unmarked) [Example G117] | 6 | 55 | 4 | 13 | – | –
CC(CNC(=O)c1ccc(Nc2nc(N)c(C(=O)c3c(F)cccc3F)s2)cc1)c1ccccc1 (centres unmarked) [Example G118] | 5 | 48 | 11 | 21 | – | –
CN(C)CCCNC(=O)c1ccc(Nc2nc(N)c(C(=O)c3c(F)cccc3F)s2)cc1 [Example G119] | 0 | 64 | 11 | 31 | – | –
Nc1nc(Nc2ccc(C(=O)NC3CCS(=O)(=O)C3)cc2)sc1C(=O)c1c(F)cccc1F (centres unmarked) [Example G120] | 0 | 54 | 14 | 23 | – | –
Nc1nc(Nc2ccc(C(=O)NC3CCSC3=O)cc2)sc1C(=O)c1c(F)cccc1F (centres unmarked) [Example G121] | 0 | 55 | 13 | 20 | – | –
Nc1nc(Nc2ccc(C(=O)NC3CC3)cc2)sc1C(=O)c1c(F)cccc1F [Example G123] | 4 | 50 | −5 | 12 | – | –
Nc1nc(Nc2ccc(C(=O)NCCN3CCOCC3)cc2)sc1C(=O)c1c(F)cccc1F [Example G124] | 0 | 64 | 10 | 17 | – | –
